Several values for one entry are separate records, joined by “and”; a condition that tells them apart may be missing. Equal entries are not always repeated.
Legend:
[1] = system: Nrf2; assay: Nrf2 reporter activity by Tg(gstp1:GFP) fluorescence in transgenic zebrafish embryos; format: in vivo; conditions: 24-hour treatment from 1 dpf to 2 dpf; for Ratio/CTL, Tg(gstp1:GFP) fluorescence signal: 5 μM, olfactory epithelia, relative to vehicle (DMSO = 1.00)
Protocol: Zebrafish AB transgenic strains Tg(gstp1:GFP) were maintained in a Pentair Aquatic Ecosystem (Apopka, Fla., United States of America) fish housing unit with 14 h light/10 h dark cycle (see Tsujita, T., Li, L., Nakajima, H., Iwamoto, N., Nakajima-Takagi, Y., Ohashi, K., Kawakami, K., Kumagai, Y., Freeman, B. A., Yamamoto, M., and Kobayashi, M. (2011) “Nitro-fatty acids and cyclopentenone prostaglandins share strategies to activate the Keap1-Nrf2 system: a study using green fluorescent protein transgenic zebrafish.” Genes Cells 16, 46-57). The fish embryos were maintained at 28.5° C. in 0.3× Danieau's solution (19.3 mM NaCl, 0.23 mM KCl, 0.13 mM MgSO4, 0.2 mM Ca(NO3)2, 1.7 mM HEPES, pH 7.0) containing 30 μg/ml phenylthiourea (PTU) to inhibit pigmentation. Tg(gstp1:GFP) cross with AB wild-type strain fluorescence embryos were used for the experiment. Zebrafish embryos were washed, dechorionated and anaesthetized before observations, and fluorescence imaging for analysis.
Transgenic zebrafish embryos at 1 day-post-fertilization (dpf) were dechorionated and placed in Petri dishes containing different chemicals diluted in 0.3× Danieau's solution containing PTU. The chemical stock was dissolved in DMSO at 5 mM concentration.
An Olympus MVX10 Fluorescence Macroscope (Olympus, Center Valley, Pa., United States of America) equipped with a Hamamatsu C9300-221 high-speed digital CCD camera (Hamamatsu City, Japan) was used for fluorescence microscopy. Tg(gstp1:GFP) fluorescent embryos were anaesthetized in tricaine and imaged at 2 dpf. MetaMorph Basic software (Olympus, Center Valley, Pa., United States of America) was used for image acquisition and analysis.
Quantification of Nrf2 Reporter Activity by Tg(gstp1:
GFP) Fluoresence in Zebrafish Model. The fluorescence intensity of the olfactory neural epithelia was quantitated using MetaMorph Basic software. In brief, GFP expression in the olfactory regions of Tg(gstp1:GFP) embryos treated with various chemicals was measured after 24-hour treatment from 1 dpf to 2 dpf. The GFP induction was detectable by fluorescence signal at the area of the olfactory epithelia in the anterior of the head region, the intensity was measured using an area of a circle of 60 pixel diameter of the fluorescence olfactory epithelia subtracted by a background non-fluorescence area next to the zebrafish embryo. Both the left and right olfactory epithelia were measured to give an average fluorescence value. The values are an average of measurements from at least 10 embryos.

[2] = Biotransformation in zebrafish embryos (cysteine conjugates, LC/MS); format: in vivo; conditions: 5 μM in incubation medium, 8 hpf to 24 hpf
Protocol: Fifty zebrafish embryos at the 8 hour-post-fertilization (hpf) stage were incubated at 28.5° C. in 0.3× Danieau's solution (19.3 mM NaCl, 0.23 mM KCl, 0.13 mM MgSO4, 0.2 mM Ca(NO3)2, 1.7 mM HEPES, pH 7.0) with or without 5 μM 18 and 25-27, respectively. At 24 hpf, embryos were dechorionated manually and the chorions were carefully removed one by one from the culture medium. The zebrafish embryos were harvested and kept at −80° C. till analyzed by LC/MS.
200 μL Sodium acetate buffer solution (pH 5.0) was added to 50 zebrafish embryos. Samples were homogenized for 90 s by an Omni Bead Ruptor Homogenizer (Kennesaw, Ga., United States of America). 10 μL 10% ascorbic acid and 300 μL sodium acetate buffer were added to the homogenates. The mixture was incubated in the presence of β-glucuronidase (250 U) and sulfatase (3 U) at 37° C. for 45 min, and then 600 μL MeOH with 1% acetic acid was added. The resulting mixture was vortexed for 30 s and then centrifuged at 17000 g for 10 min. The supernatant was removed and evaporated under a gentle stream of nitrogen. The residue was reconstituted in 150 μL 90% MeOH with 0.2% acetic acid (AA), and 10 μL was analyzed directly by LC/MS.
(§1) LC/MS analysis was carried out with a Thermo-Finnigan Spectra System, which consisted of an Accela high speed MS pump, an Accela refrigerated autosampler, and an LCQ Fleet ion trap mass detector (Thermo Electron, San Jose, Calif., United States of America) incorporated with an electrospray ionization (ESI) interface. A Gemini-NX C18 column (150 mm×4.6 mm i.d., 5 μm; Phenomenex, Torrance, Calif., United States of America) was used for separation at a flow rate of 0.3 mL/min. The column was eluted with 100% A (5% aqueous methanol with 0.2% formic acid) for 1 min, followed by linear increases in B (95% aqueous methanol with 0.2% formic acid) to 55% from 1 to 4 min, to 85% from 4 to 25 min, then to 100% B from 25 to 30 min, and then with 100% B from 30 to 35 min. The column was then re-equilibrated with 100% A for 5 min. The LC eluent was introduced into the ESI interface. The positive ion polarity mode was set for the ESI source with the voltage on the ESI interface maintained at approximately 4.6 kV. Nitrogen gas was used as the sheath gas and auxiliary gas. Optimized source parameters, including capillary temperature (260° C.), sheath gas flow rate (31 arbitrary units), auxiliary gas flow rate (16 units), tube lens (34 V), and capillary voltage 9 V, were tuned using authentic samples. The collision-induced dissociation (CID) was conducted with an isolation width 2 Da and normalized collision energy of 35 for MS^2. The mass range was measured from 100 to 800 m/z. Data acquisition was performed with Xcalibur version 2.0 (Thermo Electron, San Jose, Calif., United States of America).

[3] = Formation of cysteine conjugates in mice (urine, LC/MS); format: in vivo, mouse; conditions: oral gavage 200 mg/kg, urine collected in 24 h
Protocol: as §1, with “Optimized source parameters, including capillary temperature (260° C.), sheath gas flow rate (31 arbitrary units), auxiliary gas flow rate (16 units), tube lens (34 V), and capillary voltage 9 V, were tuned using authentic samples. The collision-induced dissociation (CID) was conducted with an isolation width 2 Da and normalized collision energy of 35 for MS^2.” left out, “Data acquisition was performed with Xcalibur version 2.0 (Thermo Electron, San Jose, Calif., United States of America).” left out
Enzymatic deconjugation of mouse urine was performed as described previously with slight modifications. […] The resulting suspension was centrifuged at 17,000 g for 5 min, and 10 μL of supernatant was analyzed directly by LC/MS.

Structure (SMILES) | Ratio/CTL, Tg(gstp1:GFP) fluorescence signal [1] | further results
CCCCC/C=C/C(=O)CCc1ccc(O)c(OC)c1 [Compound 1, [6]-shogaol, reference compound] | 2.40 and 2.40 ± 0.54 | Ratio/CTL, Tg(gstp1:GFP) fluorescence signal ([1]; listed as 6S): 2.40
CCCCCCC/C=C/C(=O)CCc1ccc(O)c(OC)c1 [Compound 2, reference compound] | 1.67 ± 0.55 | Ratio/CTL, Tg(gstp1:GFP) fluorescence signal ([1]; listed as 8S): 1.67
CCCCCCCCC/C=C/C(=O)CCc1ccc(O)c(OC)c1 [Compound 3, reference compound] | 1.53 ± 0.53 | Ratio/CTL, Tg(gstp1:GFP) fluorescence signal ([1]; listed as 10S): 1.53
CCCCCC=CC(O)CCc1ccc(O)c(OC)c1 (centres unmarked) [Compound 4] | 1.13 and 1.13 ± 0.21 | –
CCCCCCCC(=O)CCc1ccc(O)c(OC)c1 [Compound 5] | 1.27 and 1.27 ± 0.29 | –
CCCCCC(CC(=O)CCc1ccc(O)c(OC)c1)SCC(N)C(=O)O (centres unmarked) [Compound 6] | 1.06 ± 0.20 | –
CCCCCC(CC(=O)CCc1ccc(O)c(OC)c1)SCC(NC(C)=O)C(=O)O (centres unmarked) [Compound 7] | 1.04 ± 0.05 | –
CCCCCC(CC(=O)CCc1ccc(O)c(OC)c1)SC (centres unmarked) [Compound 8] | 1.16 ± 0.47 | –
CCCCCC(CC(=O)CCc1ccc(O)c(OC)c1)OC (centres unmarked) [Compound 10] | 0.96 ± 0.24 | –
CCCCC[C@H](O)CC(=O)CCc1ccc(O)c(OC)c1 [Compound 11, [6]-gingerol, reference compound] | 1.87 and 1.87 ± 0.51 | –
CCCCCCC[C@H](O)CC(=O)CCc1ccc(O)c(OC)c1 [Compound 12, reference compound] | 1.65 and 1.65 ± 0.29 | –
CCCCCCCCC[C@H](O)CC(=O)CCc1ccc(O)c(OC)c1 [Compound 13, reference compound] | 1.29 and 1.29 ± 0.40 | –
CCCCCCCC(O)CCc1ccc(O)c(OC)c1 (centres unmarked) [Compound 14] | 0.96 ± 0.21 | Nrf2 activation in Tg(gstp1:GFP) zebrafish embryos, in words [1]: no effect at all
CCCCCC(CC(O)CCc1ccc(O)c(OC)c1)SCC(N)C(=O)O (centres unmarked) [Compound 15] | 1.08 ± 0.65 | –
CCCCCC(CC(O)CCc1ccc(O)c(OC)c1)SCC(NC(C)=O)C(=O)O (centres unmarked) [Compound 16] | 0.78 ± 0.12 | –
CCCCCC(CC(O)CCc1ccc(O)c(OC)c1)SC (centres unmarked) [Compound 17] | 0.72 ± 0.14 | –
CCCCC/C=C/C(=O)/C=C/c1ccc(O)c(OC)c1 [Compound 18] | 5.67 and 5.67 ± 0.59 | Cysteine conjugates found in zebrafish embryos [2]: conjugate 35 was predominantly present; Cysteine conjugates found in mouse urine [3]: conjugate 35 was predominantly present
CCCCCCCC(=O)/C=C/c1ccc(O)c(OC)c1 [Compound 19] | 3.29 and 3.29 ± 0.35 | –
CCCCC/C=C/C(=O)/C=C/c1cc(O)c(O)c(OC)c1 [Compound 20] | 1.26 and 1.26 ± 0.14 | –
CCCCC/C=C/C(=O)/C=C/c1cc(OC)c(O)c(C(F)(F)F)c1 [Compound 21] | 2.18 and 2.18 ± 0.53 | –
CCCCC/C=C/C(=O)/C=C/c1cccc(C(F)(F)F)c1 [Compound 22] | 1.28 and 1.28 ± 0.10 | –
CCCCC/C=C/C(=O)/C=C/c1cccc(C(F)(F)F)c1F [Compound 23] | 1.63 and 1.63 ± 0.17 | –
CCCCC/C=C/C(=O)/C=C/c1ccccc1C(F)(F)F [Compound 24] | 1.55 and 1.55 ± 0.67 | –
CCCCCCCC(=O)CCc1ccc(O)c(O)c1 [Compound 25] | 4.32 and 4.32 ± 0.50 | Cysteine conjugates found in zebrafish embryos [2]: conjugates 37 and 37b were exclusively identified
C[S+]([O-])CCCCN=C=S (centres unmarked) [SFN, sulforaphane, reference compound] | 2.03 and 2.03 ± 0.49 | –

— US10342766B2, “6-shogaol derivatives and activities thereof” (North Carolina Agricultural and Technical State University, priority 2017, dated 2019)
